Biological target: T1, FXR (Rattus norvegicus, UniProt Q62735)
T1 sequence (Q62735 1-469): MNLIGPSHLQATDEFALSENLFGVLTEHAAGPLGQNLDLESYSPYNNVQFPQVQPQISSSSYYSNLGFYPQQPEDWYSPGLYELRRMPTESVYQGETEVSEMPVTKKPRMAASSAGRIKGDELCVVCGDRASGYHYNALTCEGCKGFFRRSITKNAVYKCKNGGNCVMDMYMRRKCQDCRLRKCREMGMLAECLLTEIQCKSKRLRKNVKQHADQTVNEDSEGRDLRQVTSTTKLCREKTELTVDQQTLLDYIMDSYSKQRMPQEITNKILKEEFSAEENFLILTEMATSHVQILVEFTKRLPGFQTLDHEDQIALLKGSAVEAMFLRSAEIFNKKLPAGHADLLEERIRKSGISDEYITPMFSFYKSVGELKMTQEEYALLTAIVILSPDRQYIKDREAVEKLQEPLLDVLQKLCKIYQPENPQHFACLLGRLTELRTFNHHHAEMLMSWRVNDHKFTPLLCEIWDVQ
T1 sequence (P28700 1-467 partner): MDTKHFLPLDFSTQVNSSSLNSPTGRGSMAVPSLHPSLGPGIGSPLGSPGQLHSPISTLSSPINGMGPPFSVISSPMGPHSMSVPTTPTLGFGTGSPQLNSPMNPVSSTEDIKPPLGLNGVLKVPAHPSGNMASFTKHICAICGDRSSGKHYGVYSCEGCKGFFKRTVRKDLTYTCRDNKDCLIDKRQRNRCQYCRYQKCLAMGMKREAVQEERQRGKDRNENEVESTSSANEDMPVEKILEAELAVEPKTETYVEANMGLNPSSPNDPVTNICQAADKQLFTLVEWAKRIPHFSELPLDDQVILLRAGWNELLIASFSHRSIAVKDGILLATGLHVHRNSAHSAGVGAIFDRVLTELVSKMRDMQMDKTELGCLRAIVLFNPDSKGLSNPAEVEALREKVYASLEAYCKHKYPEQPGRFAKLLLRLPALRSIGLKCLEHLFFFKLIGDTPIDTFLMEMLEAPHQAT
Assay: cell-based
Conditions: for FXR-dependent transcription, induction: 7.5 μM
Experimental: These experiments employed a mammalian cell culture system using Chinese hamster ovary cells (CHO) to evaluate the transcriptional function of Drosophila melanogaster EcR and USP using methods described previously (U.S. Patent Application Publication No: 2005/0049230; Henrich et al, 2003). Cells were seeded in 6-well polypropylene culture plates (Falcon) with 10^5 cells per well on the day prior to transfection. Transfection was subsequently performed using either calcium phosphate (Kitareewan et al., 1996, Mol. Biol. Cell, 7:1153-1196) or a GenePorter reagent (Gene Therapy Systems, Inc; San Diego, Calif.) following manufacturer's protocols. Each well received 1.25 μg of (EcRE)5-ΔMTV-CAT (five copies of the hsp27 EcRE inserted into an mouse mammary tumor virus (MTV) promoter upstream of the chloramphenicol acetyltransferase (CAT) gene) or (EcRE)5-ΔMTV-LUC (the same promoter attached to firefly luciferase), 1.25 μg of pCH111 (SV40 early promoter linked to the β-galactosidase gene) to normalize CAT activity, and 0.25 μg of each expression plasmid (EcR, FXR, RXR, USP) that was tested. The cells were incubated with plasmid DNA for seven hours and then washed with 1×PBS. Muristerone A (murA; Alexis Biochemicals) or 20-hydroxyecdysone (20E; Sigma) dissolved in ethanol to a concentration of 10 mM was diluted as necessary to the final assay concentration (FAC) in 2 ml of fresh incubation medium that was then applied to the cells. Similarly, JHIII (Sigma) was dissolved in dimethyl sulfoxide (DMSO) to a concentration of […] and diluted into the incubation medium to its final assay concentration (20, 40, 80, 160 μM). […] A corresponding volume of ethanol and DMSO were added to control cells for all experiments. For all experiments, the cells were allowed to incubate with the medium for 24 hours before collection and cell lysates were prepared by described methods (Kitareewan et al., 1996). Both β-galactosidase and CAT reporter activity were measured based on previously used methods (Kitareewan et al, 1996). Luciferase assays using luciferrin followed the specifications of the manufacturer.
Transcriptional activity, measured as ^14C-chloramphenicol counts (for measuring CAT activity) or relative luciferase activity (RLU) was quantified for each cell lysate. The counts were then normalized by adjusting for differences in β-galactosidase activity, since β-galactosidase expression is controlled by a constitutive promoter and provides an estimate of cell mass. Data were normalized as fold-induction based on differences in reporter gene activity between hormonally treated and control cells.
In these experiments, candidate juvenoids were tested for their ability to activate FXR mediated transcription by transfecting Chinese hamster ovary (CHO) cells using the FXR plasmid, mouse RXRα, and the ΔMTV-(EcRE)5-CAT reporter as described herein. An RXR-dependent CRBPII-CAT reporter plasmid was employed in parallel assays to discern activators specific for this receptor.

[1] = dose 20 μM, 1 = no increase over vehicle

5,11-dimethyltetrahydrochrysene
FXR-dependent activity, induction (dose not stated): activated

CCCCCc1cc(O)c2c(c1)OC(C)(C)[C@@H]1CC=C(C)C[C@@H]21 (single isomer, unassigned) [Δ^8-isomer]
FXR-dependent CAT activity, induction (15 μM): not

CC12CCC(CC1)C(C)(C)O2 [1,8-cineole]
FXR-dependent activity, induction (800 μM): two-fold | FXR ACTIVITY (fold-induction) (dose 400 μM): 2 fold-induction

OCCc1ccccc1O [2-hydroxyphenethyl alcohol, 2-hydroxyphenethlyl alcohol]
FXR-dependent activity, induction (400 μM): 3 fold

C=C(C)CCc1cc(OC)c(OC)cc1O [3,4-dimethoxy-6-isopentenylphenol]
FXR-dependent activity, induction (100 μM): 3 fold

OCCc1cccc(O)c1 [3-hydroxyphenethyl alcohol, 3-hydroxyphenethlyl alcohol]
FXR-dependent activity, induction (400 μM): 3 fold

OCCc1ccc(O)cc1 [4-hydroxyphenethyl alcohol, 4-hydroxyphenethlyl alcohol]
FXR-dependent activity, induction (400 μM): 3 fold

COc1cc2ccc(=O)oc2cc1O [7-hydroxy-6-methoxycoumarin]
FXR-dependent activity, induction (1 mM): ineffectiveness

CC(C)CCC[C@@H](C)[C@H]1CC[C@H]2[C@@H]3C(=O)C=C4C[C@@H](O)CC[C@]4(C)[C@H]3CC[C@]12C [7-ketocholesterol]
FXR-dependent transcription, induction: not

COc1ccc2ccc(=O)oc2c1 [7-methoxycoumarin]
FXR-dependent activity, induction (1 mM): 10 fold

CC(C)CCC[C@@H](C)[C@H]1CC[C@H]2[C@@H]3[C@H](O)C=C4C[C@@H](O)CC[C@]4(C)[C@H]3CC[C@]12C [7α-hydroxycholesterol]
FXR-dependent transcription, induction: not

Nc1ncnc2c1nc(Br)n2[C@@H]1O[C@@H]2COP(=O)(O)O[C@H]2[C@H]1O [8-Br-cAMP]
FXR-dependent activity, induction (1 mM): 4 fold

COc1c2occc2cc2ccc(=O)oc12 [8-methoxypsoralen]
FXR-dependent CAT activity, induction (50 μM): inactive

CC(C)=CCc1c(O)cc(O)c2c1O[C@H](c1ccc(O)cc1)CC2=O [8-prenylnaringenin]
FXR-dependent CAT activity, induction (20 μM): 38 fold | FXR ACTIVITY (fold-induction) [1]: 38 fold-induction

CC(C)CCC[C@](C)(O)[C@H]1CC[C@H]2[C@@H]3CC=C4C[C@@H](O)CC[C@]4(C)[C@H]3CC[C@@]21C [20α-hydroxycholesterol]
FXR-dependent transcription, induction: 10 fold

CC(C)CC[C@H](O)[C@@H](C)[C@H]1CC[C@H]2[C@@H]3CC=C4C[C@@H](O)CC[C@]4(C)[C@H]3CC[C@]12C [22S-hydroxycholesterol]
FXR-dependent transcription, induction: not

COc1cc(O)c(CC=C(C)C)c2c1C(=O)CC(c1ccc(O)cc1)O2 (stereo not shown) [Isoxanthohumol]
FXR-dependent CAT activity, induction (20 μM): 9 fold | FXR ACTIVITY (fold-induction) [1]: 9 fold-induction

CC(C)=CCC1=C(O)C(C(=O)CC(C)C)=C(O)C(CC=C(C)C)(CC=C(C)C)C1=O [Lupulone]
FXR-dependent CAT activity, induction (20 μM): inert | FXR ACTIVITY (fold-induction) [1]: 1 fold-induction

CC1=C[C@H]2[C@@]3(O)[C@H](C)[C@@H](O)[C@]4(O)[C@H]([C@@H]3C=C(CO)C[C@]2(O)C1=O)C4(C)C [Phorbol]
FXR-dependent activity, induction (dose not stated): inactive

CCCCCc1cc(O)c2c(c1)OC(C)(C)[C@@H]1CCC(C)=C[C@@H]21 [THC, 1-trans-Δ^9-tetrahydrocannabinol]
FXR-dependent CAT activity, induction (15 μM): 5 fold

COC1=C(OC)C(=O)C(CC=C(C)C)=C(C)C1=O [U1, Ubiquinone-1]
inhibition of farnesol-induced FXR-dependent activity (10 μM): completely inhibited

COC1=C(OC)C(=O)C(C/C=C(\C)CC/C=C(\C)CCC=C(C)C)=C(C)C1=O [U3]
FXR-dependent activity, induction (dose not stated): 5 fold

COC1=C(OC)C(=O)C(C/C=C(\C)CC/C=C(\C)CC/C=C(\C)CCC=C(C)C)=C(C)C1=O [U4]
FXR-dependent activity, induction (dose not stated): 3 fold

COC1=C(OC)C(=O)C(C/C=C(\C)CC/C=C(\C)CC/C=C(\C)CC/C=C(\C)CC/C=C(\C)CCC=C(C)C)=C(C)C1=O [U6]
FXR-dependent activity, induction (dose not stated): inactive

COC1=C(OC)C(=O)C(C/C=C(\C)CC/C=C(\C)CC/C=C(\C)CC/C=C(\C)CC/C=C(\C)CC/C=C(\C)CC/C=C(\C)CCC=C(C)C)=C(C)C1=O [U8]
FXR-dependent activity, induction (dose not stated): inactive

COC1=C(OC)C(=O)C(C/C=C(\C)CC/C=C(\C)CC/C=C(\C)CC/C=C(\C)CC/C=C(\C)CC/C=C(\C)CC/C=C(\C)CC/C=C(\C)CCC=C(C)C)=C(C)C1=O [U9]
FXR-dependent activity, induction (dose not stated): inactive

COC1=C(OC)C(=O)C(C/C=C(\C)CC/C=C(\C)CC/C=C(\C)CC/C=C(\C)CC/C=C(\C)CC/C=C(\C)CC/C=C(\C)CC/C=C(\C)CC/C=C(\C)CCC=C(C)C)=C(C)C1=O [U10]
FXR-dependent activity, induction (dose not stated): inactive

COc1cc(O)c(CC=C(C)C)c(O)c1C(=O)/C=C/c1ccc(O)cc1 [Xanthohumol]
FXR ACTIVITY (fold-induction) (dose not given, 1 = no increase over vehicle): 1 fold-induction | FXR-dependent activity, induction (dose not stated): not activated

CCOC(=O)C=C(C)CCCC(C)(Cl)CCCC(C)(C)Cl (stereo not shown) [ZR232, ethyl ester of 7,11-dichloro-2-ene farnesoic acid]
FXR-dependent CAT activity, induction (50 μM): 5 fold

Nc1ncnc2nc[nH]c12 [adenine]
FXR-dependent activity, induction (dose not stated): ineffective

C=CCc1cc(OC)c2c(c1OC)OCO2 [apiole]
FXR-dependent CAT activity, induction (250 μM): 4 fold

CC(C)=CCC/C(C)=C/COc1c2ccoc2cc2oc(=O)ccc12 [bergamotin]
FXR-dependent activity, induction (25 μM): 8 fold | FXR ACTIVITY (fold-induction) (dose 25 μM): 10 fold-induction

C=CCC1=C(C)C(OC(=O)[C@@H]2[C@@H](C=C(C)C)C2(C)C)CC1=O (stereo partly shown) [bioallethrin]
FXR-dependent activity, induction (25 μM): 14 fold

C[C@@]12CCc3occc3[C@H]1CC[C@@]13C[C@@H](CC[C@H]12)[C@@](O)(CO)C3 [cafestol]
FXR ACTIVITY (fold-induction) [1]: 12 fold-induction

O=C(O)/C=C/c1ccc(O)c(O)c1 [caffeic acid]
FXR-dependent CAT activity, induction (250 μM): inactive | FXR ACTIVITY (fold-induction) (dose 100 μM, 1 = no increase over vehicle): 1 fold-induction

CCCCCc1cc(O)c2c(c1)OC(C)(C)c1ccc(C)cc1-2 [cannabinol]
FXR-dependent CAT activity, induction (15 μM): not

CNC(=O)Oc1cccc2ccccc12 [carbaryl]
FXR-dependent activity, induction (dose not stated): inactive

ClC1=C(Cl)C2(Cl)C3C(Cl)C(Cl)CC3C1(Cl)C2(Cl)Cl (stereo not shown) [chlordane]
FXR-dependent CAT activity, induction (5 μM): 7 fold | FXR ACTIVITY (fold-induction) (dose 5 μM): 7 fold-induction

CCOCn1c(-c2ccc(Cl)cc2)c(C#N)c(Br)c1C(F)(F)F [chlorfenapyr]
FXR-dependent activity, induction (25 μM): 10 fold

CC(C)(O)/C=C/C(=O)[C@](C)(O)[C@H]1[C@H](O)C[C@@]2(C)[C@@H]3CC=C4[C@@H](C[C@H](O)C(=O)C4(C)C)[C@]3(C)C(=O)C[C@]12C [cucurbitacin D]
suppression of FXR-dependent activity promoted by CDCA (1 μM cucurbitacin D, 40 μM CDCA): 58 fold | suppression of FXR-dependent activity promoted by JH III (1 μM cucurbitacin D, 40 μM JH III): 7 fold

— patent US8637237B2, “Methods, compositions, and systems for the identification of species-specific or developmental stage-specific insecticides” (The University of North Carolina at Greensboro, priority 2003, dated 2014)
